Experimental data as given in patent US5543426A, “Use of certain 3,7-disubstituted indole compounds for treating depression or cognitive disorders” (priority 1990, dated 1996).

Columns and labels:
5-HT3 binding sites = biological target: T1, 5-HT3 binding sites (Mus musculus, UniProt P23979); assay: binding to 5-HT3 binding sites, N1E-115 cells (method of Hoyer and Neijt)
T1 construct: endogenous in cells; host or cells: N1E-115
Text: 1. their potent and selective binding properties to 5-HT3 binding sites, e.g. to N1E-115 cells measured according to the method disclosed by D. Hoyer and H.C. Neijt, Mol. Pharm., 33, 303-309.

gastric emptying in rats = assay: gastric emptying of glass spheres in rats; assay type: in vivo; details: Rattus norvegicus, ip, given 15 min before 25 glass spheres, emptying measured 5, 10, 15 and 30 min after, read-out: ED50, promoting effect on gastric emptying
Protocol: 2. their promoting effect on gastric emptying in rats as indicated in standard in vivo tests when administered i.p. at doses of about 0.01 to about 1 mg/kg. The compounds to be tested are administered 15 min. before the administration of 25 glass spheres and gastric emptying is measured 5, 10, 15 and 30 min. after administration of the spheres. Example compound has an ED50 of 0.2 mg/kg i.p.

Benzold Jarisch Reflex = assay: blockade of the Benzold Jarisch Reflex (method of Fozard); assay type: in vivo; details: read-out: ID50, blockade of the Benzold Jarisch Reflex
Protocol: Pharmacol., 326, 36-44 (1984). Example compound has an ID50 of 70 μg/kg.

mice = assay: social stress model: plasma corticosterone rise induced by an aggressive, inaccessible male mouse; assay type: in vivo; details: p.o., 0.1 to 1 mg/kg
Protocol: The compounds of the invention also reduce the plasma corticosterone rise induced in mice by the presence of an aggressive, but inaccessible male mouse. Compounds of the invention when given p.o. for 14 days at a dosage of from about 0.1 to 10 mg/kg restore the plasma corticosterone level to normal.
The Example compound is preferred.

T1 sequence (P23979 24-489): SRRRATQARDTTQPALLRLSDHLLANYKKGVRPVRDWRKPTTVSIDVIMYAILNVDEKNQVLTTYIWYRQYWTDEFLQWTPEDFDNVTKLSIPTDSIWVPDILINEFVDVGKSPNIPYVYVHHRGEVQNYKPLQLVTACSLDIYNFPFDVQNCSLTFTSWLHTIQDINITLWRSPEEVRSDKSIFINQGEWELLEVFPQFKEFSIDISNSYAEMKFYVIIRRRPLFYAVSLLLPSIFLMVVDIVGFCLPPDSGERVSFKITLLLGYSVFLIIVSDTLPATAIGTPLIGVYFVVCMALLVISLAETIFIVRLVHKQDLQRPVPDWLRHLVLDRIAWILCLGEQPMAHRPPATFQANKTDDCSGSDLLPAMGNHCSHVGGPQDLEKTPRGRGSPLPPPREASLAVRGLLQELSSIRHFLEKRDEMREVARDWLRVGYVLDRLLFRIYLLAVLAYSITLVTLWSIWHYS

COc1cccc2c(C(=O)O[C@H]3C[C@H]4CC[C@@H](C3)N4C)c[nH]c12 [Example compound, 7-Methoxy-1H-indol-3-carboxylic acid-(1αH, 5αH)-8-methyl-8-aza-bicyclo3,2,1oct-3α-yl-ester]
Kd (5-HT3 binding sites): 1.35 nM | ED50 (gastric emptying in rats): 0.2 mg/kg | ED50 (Benzold Jarisch Reflex): 0.07 mg/kg | stress-induced corticosterone concentration in plasma (mice): reduces the stress-induced corticosterone concentration in plasma
